Values of other authors, collected in patent publication US20010056087A1, “Use of 5alpha-androst-1en-3,17-diol to increase the level of the anabolic/androgenic hormone 17beta-hydroxy-5alpha-androst-1-en-3-one in humans” (priority 2000, published 2001).

Details: One hundred mg given orally to men

## C[C@]12C=CC(=O)C[C@@H]1CC[C@@H]1[C@@H]2CC[C@]2(C)C(=O)CC[C@@H]12 [1-androstenedione, 5alpha-androst-1-en-3,17-dione]
  excretion of 17beta-hydroxy-5alpha-androst-1-en-3-one in the urine (in-vivo conversion): considerable excretion of 17beta-hydroxy-5alpha-androst-1-en-3-one in the urine
